We go through 10 compounds from ChEMBL document CHEMBL1201862, “PubChem BioAssay data set” (2004).

Holding throughout (assay): NCI tumour cell line growth inhibition, 48 h
The subject of assay [1] is A498.
Assay [2] relates to A549.
The test system of assay [3] is ACHN.
Assay [4] concerns COLO 205.
For assay [5], the system named is Hs-578T.
Assay [6] concerns LOX IMVI.
Assay [7] concerns MCF7.
Assay [8] relates to MDA-MB-231.
For assay [9], the system named is MDA-MB-435.
Assay [10] concerns Malme-3M.
In assay [11] the test system is NCI-H522.
For assay [12], the system named is NCI/ADR-RES.
Assay [13] deals with PC-3.
Assay [14] relates to RPMI-8226.
Assay [15] has as its system SN12C.
In assay [16] the test system is SW-620.
Assay [17] concerns T47D.
Assay [18] relates to U-251.
In assay [19] the test system is UACC-257.

Each structure is given as a SMILES string.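 These data come from cells grown in 96-well plates and exposed to compound for 48 hours at five concentrations. GI50 = concentration required for 50% inhibition of growth.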 The source made the active and inactive calls. No stated cut-off is given here; in the data, active = GI50 up to about 1.1 µM and inactive = higher.

With `C=C(Cl)/C(=C/Cl)CCC(Br)C(C)(C)Cl.C=C(Cl)/C(=C\Cl)CCC(Br)C(C)(C)Cl` (stereo not given), the GI50 in assay [1], in assay [2], in assay [3], in [4], in assay [5] and in [6] was > 10 µM (inactive) throughout. Also, the GI50 was > 10 µM (inactive) in assay [7]; > 10 µM (inactive) in assay [8]; > 10 µM (inactive) in assay [9]; > 10 µM (inactive) in assay [10]; 9.77 µM (inactive) in assay [11]; > 10 µM (inactive) in [12]. Further, the GI50 in assay [13], in [14], in [15], in assay [16], in assay [17] and in assay [18] was > 10 µM (inactive) throughout. Besides, in assay [19], the GI50 is > 10 µM (inactive).
`COc1cc2c(cc1OC)C13CCN4CC5=CCOC6CC(=O)N2C1C6C5CC43O` (stereo not given): the GI50 in assay [1], in [2], in assay [3], in assay [4], in assay [5] and in assay [6] was > 100 µM (inactive) each time. In addition, the GI50 in [7], in assay [8], in [9], in assay [10], in [11] and in assay [12] was > 100 µM (inactive) in each case. In addition, the GI50 in assay [13], in assay [14], in [15], in [16], in [17] and in assay [18] was > 100 µM (inactive) throughout. Further, the GI50 in assay [19] was > 100 µM (inactive).
For `COc1ccc2c(-c3csc(-c4c[nH]c5ccccc45)n3)c[nH]c2c1`, the GI50 is 8.65 µM (inactive) in [1]; 4.98 µM (inactive) in assay [2]; 5.48 µM (inactive) in assay [3]; 6.59 µM (inactive) in [4]; 12.5 µM (inactive) in [5]; 2.75 µM (inactive) in [6]. In addition, the GI50 in assay [7] is 4.36 µM (inactive); in [8] it was 5.2 µM (inactive); in [9], 13.8 µM (inactive); in assay [10], 4.95 µM (inactive); in assay [11] it was 4.04 µM (inactive); in assay [12] it was 6.61 µM (inactive). Besides, the GI50 in assay [13] was 4.7 µM (inactive); in assay [14], 3.77 µM (inactive); in [15], 7.57 µM (inactive); in [16], 6.92 µM (inactive); in assay [17] it was 6.32 µM (inactive); in assay [18] it was 5.19 µM (inactive). In addition, the GI50 in assay [19] is 12.7 µM (inactive).
Turning to `c1csc(-c2csc(-c3ccsc3)c2)c1`, the GI50 was > 100 µM (inactive) in [1]; 99.5 µM (inactive) in assay [2]; > 100 µM (inactive) in [3]; > 100 µM (inactive) in assay [4]; > 100 µM (inactive) in assay [5]; > 100 µM (inactive) in assay [6]. For the same compound, the GI50 is > 46.3 µM (inactive) in assay [7]; > 100 µM (inactive) in [8]; > 100 µM (inactive) in [9]; 56.4 µM (inactive) in assay [10]; 61.5 µM (inactive) in [11]; > 100 µM (inactive) in assay [12]. For the same compound, the GI50 in [13] was > 100 µM (inactive); in [14] it was > 100 µM (inactive); in assay [15] it was > 100 µM (inactive); in [16], > 100 µM (inactive); in assay [17], > 45.1 µM (inactive); in assay [18], > 100 µM (inactive). In addition, the GI50 in assay [19] was > 100 µM (inactive).
Regarding `O=C(O[C@H](/C=C/c1ccccc1)P1(=O)N(Cc2ccccc2)[C@@H]2CCCC[C@H]2N1Cc1ccccc1)c1ccccc1`, the GI50 was 5.57 µM (inactive) in assay [1]; 3.66 µM (inactive) in [2]; 3.94 µM (inactive) in assay [3]; 2.17 µM (inactive) in assay [4]; 6.93 µM (inactive) in assay [5]; 3.41 µM (inactive) in assay [6]. Besides, the GI50 in assay [7] was 3.63 µM (inactive); in [8], 3.16 µM (inactive); in [9], 3.63 µM (inactive); in assay [10] it was 2.49 µM (inactive); in assay [11], 3.95 µM (inactive); in assay [12], 3.18 µM (inactive). Further, the GI50 is 3.39 µM (inactive) in [13]; 2.33 µM (inactive) in assay [14]; 3.07 µM (inactive) in assay [15]; 3.57 µM (inactive) in assay [16]; 0.875 µM (active) in [17]; 3.26 µM (inactive) in [18]. Besides, in [19], the GI50 is 7.87 µM (inactive).
Turning to `CC(=O)OC[C@H]1On2nnnc2[C@H](OC(C)=O)[C@@H](OC(C)=O)[C@@H]1OC(C)=O`, the GI50 in assay [1], in assay [2], in assay [3], in assay [4], in [5] and in assay [6] was > 100 µM (inactive) each time. Also, the GI50 in assay [7] is > 100 µM (inactive); in assay [8] it was > 100 µM (inactive); in [9], > 100 µM (inactive); in assay [10], > 100 µM (inactive); in [11], > 100 µM (inactive); in [12] it was 91.8 µM (inactive). Moreover, the GI50 in [13], in [14], in [15], in assay [16], in assay [17] and in assay [18] was > 100 µM (inactive) throughout. The GI50 in assay [19] is > 100 µM (inactive).
In the case of `Cc1c(C)c2c(c(N)c1C#N)C(=O)N(CCc1ccccc1)C2=O`, the GI50 in assay [1] was > 100 µM (inactive); in [2], 94.8 µM (inactive); in assay [3], > 100 µM (inactive); in [4], > 100 µM (inactive); in [5], > 100 µM (inactive); in [6], > 100 µM (inactive). The GI50 in [7], in [8], in assay [9], in assay [10], in assay [11] and in assay [12] was > 100 µM (inactive) each time. For the same compound, the GI50 in assay [13], in assay [14], in assay [15], in assay [16], in assay [17] and in [18] was > 100 µM (inactive) in each case. In addition, in assay [19], the GI50 is > 100 µM (inactive).
For the compound `CCOC(=O)Nn1c(C)nnc1-c1ccccc1`, the GI50 in assay [1], in assay [2], in assay [3], in [4], in assay [5] and in assay [6] was > 100 µM (inactive) in each case. Further, the GI50 in assay [7], in assay [8], in [9], in assay [10], in [11] and in [12] was > 100 µM (inactive) each time. For the same compound, the GI50 in [13], in assay [14], in assay [15], in assay [16], in [17] and in assay [18] was > 100 µM (inactive) throughout. In assay [19], the GI50 is > 100 µM (inactive).
In the case of `CC1(C)CC(=O)C(C(c2cccc(O)c2O)C2C(=O)CC(C)(C)CC2=O)C(=O)C1`, the GI50 in assay [1] is > 100 µM (inactive); in assay [2] it was > 100 µM (inactive); in assay [3], > 100 µM (inactive); in assay [4] it was > 100 µM (inactive); in [5] it was 74.5 µM (inactive); in [6], 81.8 µM (inactive). Further, the GI50 in assay [7] is 49.2 µM (inactive); in assay [8], > 100 µM (inactive); in assay [9], 91 µM (inactive); in assay [10], > 100 µM (inactive); in assay [11], 63.2 µM (inactive); in assay [12], > 100 µM (inactive). For the same compound, the GI50 in assay [13] is > 100 µM (inactive); in [14], > 100 µM (inactive); in [15], > 100 µM (inactive); in assay [16], > 100 µM (inactive); in assay [17], 91.2 µM (inactive); in assay [18] it was > 100 µM (inactive). In addition, the GI50 in assay [19] was > 100 µM (inactive).
On to `C=C(CO[Si](C)(C)C(C)(C)C)C(C)=O`, for which the GI50 is > 100 µM (inactive) in [1]; > 100 µM (inactive) in [2]; 26.5 µM (inactive) in assay [3]; 24.5 µM (inactive) in [4]; 25.8 µM (inactive) in assay [5]; 4.94 µM (inactive) in assay [6]. The GI50 in [7] was 23.3 µM (inactive); in assay [8] it was 20.3 µM (inactive); in assay [9] it was 17.6 µM (inactive); in [10], 16.6 µM (inactive); in assay [11], 3.78 µM (inactive); in assay [12], 26.9 µM (inactive). The GI50 was 26.9 µM (inactive) in assay [13]; 4.88 µM (inactive) in assay [14]; 27.7 µM (inactive) in assay [15]; 8.15 µM (inactive) in assay [16]; 21.6 µM (inactive) in [17]; > 63.2 µM (inactive) in assay [18]. Further, the GI50 in assay [19] was 18 µM (inactive).
